Assay results: patent US10919896B2, “Preparation and uses of pyrimidinone derivatives” (Cancer Research Technology Limited, priority 2016, dated 2021)

Experiments:
Cdc7/Dbf4 = Cdc7/Dbf4 (Homo sapiens, UniProt O00311); test: Cdc7 Biochemical Assay Method 3: Cdc7/Dbf4 Enzyme TR-FRET Assay measuring pS40MCM2; settings: 1 μM ATP, read-out: Biochemical Method 3 (pIC50) (converted)
Summary of the method: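 2.5 nM Cdc7/Dbf4 incubated with 100 nM biotinylated MCM2-derived peptide and 1 μM ATP, 120 minutes at 25° C. Phospho-S40 detected by TR-FRET using anti-pS40 Mcm2 antibody, terbium anti-rabbit secondary and streptavidin-Alexa Fluor488.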

[1] = tested on: Cdc7 (pS40MCM2 levels in HCT116 cells); test: Cdc7 Cell Pharmacodynamics Assay Method 2A: pS40MCM2 levels in HCT116 cells, 6 hours; format: cell-based; settings: Homo sapiens, HCT-116, read-out: Biomarker Method 2A (pEC50) (converted)
Text: This protocol describes a method to investigate the inhibition of Cdc7 activity by measuring pS40MCM2 levels in cells, after treatment with compounds.
• HCT116 cells (ATCC, #CCL-247) • McCoys 5A with L-glutamine (Cellgro, #10-050-CV) • 10% FCS (Cellgro, #35-010-CV) • D-PBS without CaCl2 and MgCl2 (Cellgro, #21-031-CV) • Trypsin/EDTA (Cellgro, #25-052-CL) • BSA (Calbiochem, 126593) • Cell Extraction Buffer (Invitrogen FNN0011) • Protease inhibitor cocktail (Sigma P-2714) • PMSF 0.3M stock in DMSO (Sigma P7626) • Antibody-rabbit pMCM2 Ser40 (Abcam, AB133243) • Antibody-goat MCM2 (Bethyl #A300-122A) • Antibody-goat Anti Rabbit IgG HRP (Thermo, 31462) • SuperSignal ELISA Pico Chemiluminescent Substrate (Perbio Science UK Ltd 37069) • 10×PBS (Growcells, MRGF-6236) • Triton X100 (Sigma, P-T8787) • DMSO (Fisher, D128-1) • 2-Propanol (J. T. Baker, 9095-03) Method • Seed 1×10^6 HCT116 cells into each of two 175 cm^2 flask containing 30 mL Cell Growth Media and incubate at 37° C., 5% CO2 for 3 days. • Harvest the cells from one T175 cm^2 flask and count. • Dilute with Cell Growth Media to a cell density of 2×10^5. Dispense 100 μL to each well (20,000 HCT116 cells/well) of TC treated 96-well plate(s). • Allow cells to settle overnight in incubator set at 37° C. and 5% CO2. • Cell treatment: Transfer 0.25 μL/well from the compound plate to the wells of the cell plate(s). This is a 1:400 dilution of compound in the assay. • Once all cells are treated place the cells back to the incubator and incubate for either 6 hours (Method 2A) or 18 hours (Method 2B). • Dilute the capture antibody (total MCM2#A300-122A) 1 in 250 in the required volume of PBS (5 mL per assay plate, plus 5 mL for dead volume) and add 50 μL to each well of a Hybond plate except wells A12 & B12. Seal the plate and incubate at room temperature for a minimum of 2 hours. • Defrost aliquot of Invitrogen Cell Extraction Buffer (FNN0011) on ice and supplement with appropriate volume of both Sigma protease inhibitor cocktail (P-2714) and PMSF (final conc 1 mM from a 1 M stock in DMSO). • After the 6 hour or 18 hour cell treatment time, tap out the media from the assay plates and place them in the −70° C. freezer for at least 5 minutes. • Flick out the remaining liquid in the previously prepared capture Ab plate(s) and add 200 μL 2% BSA per well. Incubate for 1 hour at room temperature. • Remove plates from freezer and add 20 μL of ice cold complete lysis buffer. Incubate cells for 30 minutes at 4° C. • Add 30 μL per well 2% BSA • At the end of the 1 hour incubation, wash the Capture/ELISA plate(s) with Wash Buffer on the BioTek plate washer. • Transfer 40 μL per well of the lysis plate(s) to the same wells in the Capture/ELISA plate. Incubate cells overnight at 4° C. • At the end of the overnight incubation, wash the ELISA plate(s) with Wash Buffer on BioTek plate washer. • Prepare Detection Antibody Buffer and dispense 50 μL to all wells of ELISA plate(s) except wells G1 & H1. Cover plate and incubate at room temperature for 2 hours with gentle shaking. • At the end of the 2 hour incubation, wash the ELISA plate(s) with Wash Buffer on the BioTek plate washer. • Prepare the Conjugated Antibody Buffer and dispense 50 μL to all wells of ELISA plate(s). • Cover the plate and incubate at room temperature for 1 hour with gentle shaking. • At the end of the 1 hour incubation, wash the ELISA plate(s) with Wash Buffer on the BioTek plate washer. • Prepare Substrate Buffer and dispense 50 μL to all wells of ELISA plate(s). • Incubate for a minimum of 10 minutes and read plates on the EnVision 2100 Multilabel Reader (Mirror: Luminescence (404) & Luminescence 700 (212); Measurement Height: 6.5 mm; Measurement Time: 0.2 s). Method 3

Cdc7/ASK = Cdc7/ASK (Homo sapiens, UniProt O00311); test: Cdc7 Biochemical Assay Method 2: 384 well mobility shift assay (EZ Reader II), MCM2 peptide substrate; set-up: purchased; settings: 12.5 μM ATP, read-out: Biochemical Method 2 (pIC50) (converted)
Cdc7/ASK, sequence (O00311 whole entry): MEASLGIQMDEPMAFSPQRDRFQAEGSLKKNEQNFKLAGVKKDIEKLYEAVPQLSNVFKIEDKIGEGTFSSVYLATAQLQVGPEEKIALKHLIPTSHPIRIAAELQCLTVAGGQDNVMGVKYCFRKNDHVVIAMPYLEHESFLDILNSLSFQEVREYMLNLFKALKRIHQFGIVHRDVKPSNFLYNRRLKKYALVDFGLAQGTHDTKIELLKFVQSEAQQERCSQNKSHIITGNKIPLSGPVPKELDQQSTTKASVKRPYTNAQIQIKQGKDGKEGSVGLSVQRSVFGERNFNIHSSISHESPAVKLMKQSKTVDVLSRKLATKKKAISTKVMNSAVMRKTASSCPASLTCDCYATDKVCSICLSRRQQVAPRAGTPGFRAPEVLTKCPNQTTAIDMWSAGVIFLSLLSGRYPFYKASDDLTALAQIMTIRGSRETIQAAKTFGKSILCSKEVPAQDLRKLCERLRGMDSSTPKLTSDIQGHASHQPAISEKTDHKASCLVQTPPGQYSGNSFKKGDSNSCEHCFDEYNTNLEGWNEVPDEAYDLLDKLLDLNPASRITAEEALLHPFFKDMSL
Cdc7/ASK, sequence (Q9UBU7 whole entry partner): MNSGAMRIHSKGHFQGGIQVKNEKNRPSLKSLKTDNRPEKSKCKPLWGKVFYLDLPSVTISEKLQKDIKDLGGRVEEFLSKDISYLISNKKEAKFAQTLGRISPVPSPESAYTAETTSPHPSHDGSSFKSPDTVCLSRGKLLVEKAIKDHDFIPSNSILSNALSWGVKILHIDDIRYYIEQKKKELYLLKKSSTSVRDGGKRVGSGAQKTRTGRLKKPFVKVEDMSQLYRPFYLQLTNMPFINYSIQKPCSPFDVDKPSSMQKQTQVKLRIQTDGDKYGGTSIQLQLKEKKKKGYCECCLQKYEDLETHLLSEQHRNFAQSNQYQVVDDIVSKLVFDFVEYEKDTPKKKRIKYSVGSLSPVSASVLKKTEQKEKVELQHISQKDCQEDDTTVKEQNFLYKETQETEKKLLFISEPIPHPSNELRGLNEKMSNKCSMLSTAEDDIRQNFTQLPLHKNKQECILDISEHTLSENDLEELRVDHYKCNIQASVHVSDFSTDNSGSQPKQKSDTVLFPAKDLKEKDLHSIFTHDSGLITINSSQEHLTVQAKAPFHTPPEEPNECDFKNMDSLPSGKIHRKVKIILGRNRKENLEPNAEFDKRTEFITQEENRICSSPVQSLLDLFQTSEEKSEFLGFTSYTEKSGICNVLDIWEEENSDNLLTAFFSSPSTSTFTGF
Procedure: This protocol describes a method for assaying Cdc7/ASK for activity. The assay is a 384 well mobility shift assay (MSA) run on the EZ Reader II microfluidics plate reader (Caliper LifeSciences), utilising a peptide substrate based on the MCM2 sequence. The assay technology is based on the change in mobility between the peptide substrate and the phosphorylated product. A 10 nL volume of the reaction mixture is sipped onto the microfluidic chip where the substrate and product are separated by electrophoresis and detected via laser-induced fluorescence (488 nm LED). The reaction can be monitored in real-time for kinetic experiments or as an end-point for IC50 determinations. The % conversion of substrate is calculated from peak heights of product (P) and substrate (S) peptides (% conversion=P/(P+S)*100).
• 10× Assay Buffer: 200 mM HEPES pH 8, 100 mM MgCl2, 0.1% v/v Triton X-100 and 15 mM DTT. Prepare fresh buffer from 1 M HEPES pH 8, 1 M MgCl2, 1 M DTT and 10% Triton x-100 stocks for each experiment. • Cdc7/ASK is purchased from commercial suppliers and used in the assay at a final assay concentration of 0.847 ng/μL or 9.2 nM. • MCM2 peptide is purchased from commercial suppliers and used in the assay at a final assay concentration of 2.5 μM. • ATP used in the assay at a final assay concentration of 12.5 μM. Methods • 1. Prepare intermediate (daughter) compound plate by transferring 2 μL of compound from the mother plate to 18 μL of 33.3% DMSO in a clear polypropylene plate. • 2. Dry-spot 1 μL of compound from the intermediate compound plate to empty assay plate. • 3. Add 5 μL of 1.694 ng/μL CDC7/ASK working solution to ‘test’ and ‘control’ wells or […] of 2× Assay Buffer to ‘blank’ wells. • 4. Add 4 μL 2.5 μM peptide/12.5 μM ATP working solution to all wells. • 5. Incubate at 37° C. for 1 hour then remove from the incubator and leave for a further 1 hour at room temperature. • 6. Place plate into an EZReader II to read.
Percentage inhibition values were calculated from % of substrate conversion values, using the no compound (DMSO) and no enzyme control values as 0% and 100% inhibition, respectively. IC50 determination was performed with ExcelFit software (IDBS) using curve fit 205. Z′ factors were determined for each plate tested and were all above 0.5.

[2] = tested on: Cdc7 (pS53MCM2 levels in HCT116 cells); test: Cdc7 Cell Pharmacodynamics Assay Method 1: pS53MCM2 levels in HCT116 cells, 6 hours; format: cell-based; settings: Homo sapiens, HCT-116, 6 h, read-out: Biomarker Method 1 (pEC50) (converted)
Summary of the method: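 HCT116 cells (wild-type p53), 20,000 per well in McCoys 5A with 10% FCS, treated with compound for 6 h at 37 °C. Lysates captured on total-MCM2 antibody and probed with anti-pMCM2 Ser53 plus HRP secondary; chemiluminescent read-out of pS53MCM2 levels.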

Cdc7/Dbf4, sequence (O00311 whole entry): as the sequence (O00311 whole entry) above
Cdc7/Dbf4, sequence (Q9UBU7 whole entry partner): as the sequence (Q9UBU7 whole entry partner) above

IC50 (Cdc7/Dbf4) [nM]	EC50 [1] [nM]	IC50 (Cdc7/ASK) [nM]	EC50 [2] [nM]	SMILES
0.794	316	3.72	–	N[C@H]1CCN(c2nc(-c3ccnc(F)c3)[nH]c(=O)c2Cl)C1 [Compound 320]
–	–	5.5	891	CC[C@H]1CNCCN1c1nc(-c2ccncc2)[nH]c(=O)c1Cl [Compound 369]
–	–	12	1020	CC(C)[C@H]1CNCCN1c1nc(-c2ccncc2)[nH]c(=O)c1Cl [Compound 370]
–	–	3.09	245	CC[C@@H]1CNCCN1c1nc(-c2ccncc2)[nH]c(=O)c1Cl [Compound 371]
–	–	5.25	257	CC(C)[C@H]1CN(c2nc(-c3ccncc3)[nH]c(=O)c2Br)CCN1 [Compound 408, 5-bromo-4-[(3S)-3-isopropylpiperazin-1-yl]-2-(4-pyridyl)-1H-pyrimidin-6-one]
–	–	9.12	269	CC(C)(C)[C@H]1CN(c2nc(-c3ccncc3)[nH]c(=O)c2Br)CCN1 [Compound 410, 5-bromo-4-[(3S)-3-tert-butylpiperazin-1-yl]-2-(4-pyridyl)-1H-pyrimidin-6-one]
